Results reported in ChEMBL document CHEMBL4392847, “Inhibition of pre-miRNA-136 processing by Dicer with small molecule BzDANP suggested the formation of ternary complex of pre-miR-136-BzDANP-Dicer” (Bioorg Med Chem, 2019).
Active and inactive are the calls of the source. The rule behind the calls is not given here.

What was measured:
pre-microRNA 136 [1] = test: Binding affinity to pre-miR-136 RNA (unknown origin) at 0.063 to 1 uM by SPR assay; type: nucleic-acid assay
[2] = Binding affinity to pre-miR-136 RNA delta-C-bulge mutant (unknown origin) at 0.063 to 1 uM by SPR assay
[3] = Binding affinity to pre-miR-136 RNA delta-internal loop mutant (unknown origin) at 0.063 to 1 uM by SPR assay
[4] = Binding affinity to pre-miR-136 RNA hairpin mutant (unknown origin) at 0.063 to 1 uM by SPR assay
pre-microRNA 136 [5] = test: Binding affinity to pre-miR-136 RNA (unknown origin) at 63 nM by SPR assay; type: nucleic-acid assay
[6] = Binding affinity to pre-miR-136 RNA delta-C-bulge mutant (unknown origin) at <0.5 uM by SPR assay
[7] = Binding affinity to pre-miR-136 RNA hairpin mutant (unknown origin) at <0.5 uM by SPR assay
pre-microRNA 136 [8] = test: Binding affinity to pre-miR-136 RNA (unknown origin) assessed as normalized equilibrium binding response (Req) value at 1 uM by SPR assay relative to control; type: nucleic-acid assay
[9] = Binding affinity to pre-miR-136 RNA delta-C-bulge mutant (unknown origin) assessed as normalized equilibrium binding response (Req) value at 1 uM by SPR assay relative to control
[10] = Binding affinity to pre-miR-136 RNA delta-internal loop mutant (unknown origin) assessed as normalized equilibrium binding response (Req) value at 1 uM by SPR assay relative to control
pre-microRNA 136 [11] = test: Binding affinity to C-bulge site of pre-miR-136 RNA (unknown origin) at RNA to compound molar ratio of 1:0 by NMR titration assay; type: nucleic-acid assay
pre-microRNA 136 [12] = test: Binding affinity to internal loop site of pre-miR-136 RNA (unknown origin) at RNA to compound molar ratio of 1:0 by NMR titration assay; type: nucleic-acid assay
pre-microRNA 136 [13] = test: Binding affinity to hairpin loop site of pre-miR-136 RNA (unknown origin) at RNA to compound molar ratio of 1:0 by NMR titration assay; type: nucleic-acid assay
pre-microRNA 136 [14] = test: (§1) Binding affinity to pre-miR-136 RNA (unknown origin) assessed as reduction in human recombinant Dicer-mediated substrate cleavage by measuring cleavage efficiency at 200 uM incubated for 30 mins using 32P-labeled RNA by denaturing polyacrylamide gel electrophoresis method (reference value: 94.3 +/- 2.3%); type: nucleic-acid assay; parameters: scale not given: the % may be the effect or the level left
[15] = Binding affinity to pre-miR-136 RNA delta-internal loop mutant (unknown origin) assessed as reduction in human recombinant Dicer-mediated substrate cleavage by measuring cleavage efficiency at 200 uM incubated for 30 mins using 32P-labeled RNA by denaturing polyacrylamide gel electrophoresis method (reference value: 94.5 +/- 1.4%); parameters: scale not given: the % may be the effect or the level left
[16] = as §1, with “pre-miR-136 RNA delta-C-bulge mutant (unknown origin)” for “pre-miR-136 RNA (unknown origin)”, “(reference value: 89.1 +/- 2.3%)” for “(reference value: 94.3 +/- 2.3%)”; parameters: scale not given: the % may be the effect or the level left
[17] = Binding affinity to pre-miR-136 RNA hairpin mutant (unknown origin) assessed as reduction in human recombinant Dicer-mediated substrate cleavage by measuring cleavage efficiency at 200 uM incubated for 30 mins using 32P-labeled RNA by denaturing polyacrylamide gel electrophoresis method (reference value: 59.1 +/- 2.4%); parameters: scale not given: the % may be the effect or the level left
pre-microRNA 136 [18] = test: Binding affinity to pre-miR-136 RNA (unknown origin) assessed as reduction in human recombinant Dicer-mediated substrate cleavage incubated for 30 mins using 32P-labeled RNA by denaturing polyacrylamide gel electrophoresis method; type: nucleic-acid assay
pre-microRNA 136 [19] = test: Binding affinity to pre-miR-136 RNA (unknown origin) assessed as reduction in initial velocity of human recombinant Dicer-mediated substrate cleavage at 100 uM incubated for 30 mins using 32P-labeled RNA by denaturing polyacrylamide gel electrophoresis method; type: nucleic-acid assay
pre-microRNA 136 [20] = test: Binding affinity to pre-miR-136 RNA (unknown origin) assessed as reduction in Km(app) for human recombinant Dicer-mediated substrate cleavage at 100 uM incubated for 30 mins using 32P-labeled RNA by denaturing polyacrylamide gel electrophoresis method; type: nucleic-acid assay
pre-microRNA 136 [21] = test: Binding affinity to pre-miR-136 RNA (unknown origin) assessed as reduction in Vmax(app) for human recombinant Dicer-mediated substrate cleavage at 100 uM incubated for 30 mins using 32P-labeled RNA by denaturing polyacrylamide gel electrophoresis method; type: nucleic-acid assay

With `NCCCNc1ccc2c(n1)nc(NCCCN)c1ccccc12` the Kd (pre-microRNA 136 [1]; read-out: Kd) was 0.47 µM, the Kd ([2]; read-out: Kd) was 3200 µM and the Kd ([3]; read-out: Kd) was 0.45 µM. For the same compound, the Kd ([4]; read-out: Kd) was 65000 µM, the Activity (pre-microRNA 136 [5]) was “Active” and the Activity [6] was “inactive”. The Activity [7] was “inactive”, the Activity (pre-microRNA 136 [8]) was 4.32 RU and the Activity [9] was 1.73 RU. For the same compound, the Activity [10] was 4.73 RU, the Activity (pre-microRNA 136 [11]) was “Active” and the Activity (pre-microRNA 136 [12]) was “inactive”. The Activity (pre-microRNA 136 [13]) was “inactive”, the Activity (pre-microRNA 136 [14]) was 71.9% and the Activity [15] was 80.6%. For the same compound, the Activity [16] was 80.5%, the Activity [17] was 58.2% and the Activity (pre-microRNA 136 [18]) was “Dose-dependent effect”. For the same compound, the Activity (pre-microRNA 136 [19]) was “Active”, the Km (pre-microRNA 136 [20]) was 0.0279 µM and the Vmax(app) (pre-microRNA 136 [21]) was 0.38 nM/min.
In the case of `Nc1ccc2ccc(N)nc2n1`, the Kd (pre-microRNA 136 [1]) is reported as “Not Active”, the Kd [2] is reported as “Not Active” and the Kd [3] is reported as “Not Active”. For the same compound, the Kd [4] was “Not Active”.
